Columns and labels:
T-47D = assay: panel of 60 human tumor cell lines, growth inhibition (Breast Cancer); details: Homo sapiens, T47D
SW-620 = assay: panel of 60 human tumor cell lines, growth inhibition (Colon Cancer); details: Homo sapiens
PC-3 = assay: panel of 60 human tumor cell lines, growth inhibition (Prostate Cancer); details: Homo sapiens
SN12C = assay: panel of 60 human tumor cell lines, growth inhibition (Renal Cancer); details: Homo sapiens
OVCAR-3 = assay: panel of 60 human tumor cell lines, growth inhibition (Ovarian Cancer)
CAKI-1 = assay: panel of 60 human tumor cell lines, growth inhibition (Renal Cancer); details: Homo sapiens
MDA-MB-231/ATCC = assay: panel of 60 human tumor cell lines, growth inhibition (Breast Cancer); details: Homo sapiens
NCI/ADR-RES = assay: panel of 60 human tumor cell lines, growth inhibition (Ovarian Cancer); details: Homo sapiens
SNB-75 = assay: panel of 60 human tumor cell lines, growth inhibition (CNS Cancer); details: Homo sapiens
LOX IMVI = assay: panel of 60 human tumor cell lines, growth inhibition (Melanoma); details: Homo sapiens
MCF7 = assay: panel of 60 human tumor cell lines, growth inhibition (Breast Cancer); details: Homo sapiens
M14 = assay: panel of 60 human tumor cell lines, growth inhibition (Melanoma); details: Homo sapiens
SK-MEL-28 = assay: as above; details: Homo sapiens
MOLT-4 = assay: panel of 60 human tumor cell lines, growth inhibition (Leukemia); details: Homo sapiens
SK-MEL-2 = assay: panel of 60 human tumor cell lines, growth inhibition (Melanoma); details: Homo sapiens
SK-MEL-5 = assay: as above; details: Homo sapiens
UO-31 = assay: panel of 60 human tumor cell lines, growth inhibition (Renal Cancer); details: Homo sapiens
A549/ATCC = assay: panel of 60 human tumor cell lines, growth inhibition (Non-Small Cell Lung Cancer); details: Homo sapiens
HCT-116 = assay: panel of 60 human tumor cell lines, growth inhibition (Colon Cancer); details: Homo sapiens

What does the source list for `C=C1C(=O)O[C@H]2[C@H]1CC/C(COC(=O)NCCCCCCO)=C\CC[C@@]1(C)O[C@@H]21` [JVM 2-31]?
GI50 (T-47D): 2780 nM; CC50 (T-47D; read-out: LC50): 87.9 µM; IC (TGI) (T-47D; read-out: TGI): 10 µM; GI50 (SW-620; SW-620, SW-620, NCI five dose): 2930 nM; CC50 (SW-620; SW-620, read-out: LC50): 74 µM; IC (TGI) (SW-620; SW-620, read-out: TGI): 13.3 µM; GI50 (PC-3; PC-3): 13.3 µM; CC50 (PC-3; PC-3, read-out: LC50): 64.1 µM; IC (TGI) (PC-3; PC-3, read-out: TGI): 29.2 µM; GI50 (SN12C): 10.4 µM; CC50 (SN12C; read-out: LC50): 69.7 µM; IC (TGI) (SN12C; read-out: TGI): 27 µM; GI50 (OVCAR-3; Homo sapiens, OVCAR-3): 3.4 µM; CC50 (OVCAR-3; Homo sapiens, OVCAR-3, read-out: LC50): 36 µM; IC (TGI) (OVCAR-3; Homo sapiens, OVCAR-3, read-out: TGI): 12.1 µM; Percent Growth (OVCAR-3; OVCAR-3, Log10 Concentration −4.0): −97%; Percent Growth (OVCAR-3; OVCAR-3, Log10 Concentration −5.0): 9%; Percent Growth (OVCAR-3; OVCAR-3, Log10 Concentration −6.0): 97%; Percent Growth (OVCAR-3; OVCAR-3, Log10 Concentration −7.0): 111%; Percent Growth (OVCAR-3; OVCAR-3, Log10 Concentration −8.0): 105%; GI50 (CAKI-1; CAKI-1): 3.44 µM; CC50 (CAKI-1; CAKI-1, read-out: LC50): 40.2 µM; IC (TGI) (CAKI-1; CAKI-1, read-out: TGI): 15.5 µM; GI50 (MDA-MB-231/ATCC; MDA-MB-231): 8.01 µM; CC50 (MDA-MB-231/ATCC; MDA-MB-231, read-out: LC50): 57.9 µM; IC (TGI) (MDA-MB-231/ATCC; MDA-MB-231, read-out: TGI): 20.3 µM; GI50 (NCI/ADR-RES): 28.1 µM; CC50 (NCI/ADR-RES; read-out: LC50): > 100 µM; IC (TGI) (NCI/ADR-RES; read-out: TGI): > 100 µM; GI50 (SNB-75; SNB-75): 5.84 µM; CC50 (SNB-75; SNB-75, read-out: LC50): 45.6 µM; IC (TGI) (SNB-75; SNB-75, read-out: TGI): 20.1 µM; GI50 (LOX IMVI; NCI five dose): 3.45 µM; CC50 (LOX IMVI; read-out: LC50): 42.1 µM; IC (TGI) (LOX IMVI; read-out: TGI): 13.1 µM; GI50 (MCF7; MCF7, MCF7, NCI five dose): 4.92 µM; CC50 (MCF7; MCF7, read-out: LC50): 76.3 µM; IC (TGI) (MCF7; MCF7, read-out: TGI): 12 µM; GI50 (M14; M14): 4.5 µM; CC50 (M14; M14, read-out: LC50): 46.7 µM; IC (TGI) (M14; M14, read-out: TGI): 17.4 µM; GI50 (SK-MEL-28; SK-MEL-28): 5.21 µM; CC50 (SK-MEL-28; SK-MEL-28, read-out: LC50): 43.7 µM; IC (TGI) (SK-MEL-28; SK-MEL-28, read-out: TGI): 18.1 µM; GI50 (MOLT-4; MOLT-4): 5.33 µM; CC50 (MOLT-4; MOLT-4, read-out: LC50): > 100 µM; IC (TGI) (MOLT-4; MOLT-4, read-out: TGI): 26.6 µM; GI50 (SK-MEL-2; SK-MEL-2): 14.4 µM; CC50 (SK-MEL-2; SK-MEL-2, read-out: LC50): 70.4 µM; IC (TGI) (SK-MEL-2; SK-MEL-2, read-out: TGI): 31.9 µM; GI50 (SK-MEL-5; SK-MEL-5): 6.8 µM; CC50 (SK-MEL-5; SK-MEL-5, read-out: LC50): 54.5 µM; IC (TGI) (SK-MEL-5; SK-MEL-5, read-out: TGI): 21.7 µM; GI50 (UO-31; UO-31): 5.91 µM; CC50 (UO-31; UO-31, read-out: LC50): 62.6 µM; IC (TGI) (UO-31; UO-31, read-out: TGI): 21.2 µM; GI50 (A549/ATCC; A549): 17 µM; CC50 (A549/ATCC; A549, read-out: LC50): 85.2 µM; IC (TGI) (A549/ATCC; A549, read-out: TGI): 38 µM; GI50 (HCT-116; HCT-116, HCT-116, NCI five dose): 2780 nM; CC50 (HCT-116; HCT-116, read-out: LC50): 34 µM; IC (TGI) (HCT-116; HCT-116, read-out: TGI): 11 µM
